Among the data in PubChem BioAssay (NCI) are GI50 and TGI values, retold here.

Several values for one entry are separate records, joined by “and”; a condition that tells them apart may be missing. Equal values may be shown once.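 1) Cells in 96-well plates. 2) Compound, 48 h, 5 concentrations. 3) Linear interpolation between surrounding doses. 4) Unreached endpoint = highest concentration. GI50 = concentration required for 50% inhibition of growth. The concentration for full growth arrest is given as TGI.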 Bounds are passed on as bounds.

Holding throughout (assay): NCI-60 cell line screen, 48 h
Experiment [1] deals with NCI-H522 lung.
Experiment [2] relates to UACC-257 melanoma.
For experiment [3], the system named is DU-145 prostate.
Experiment [4] has as its system SW-620 colon.
In experiment [5] the test system is SN12C renal.
The subject of experiment [6] is UO-31 renal.
The subject of experiment [7] is SK-MEL-28 melanoma.
The test system of experiment [8] is 786-0 renal.
Experiment [9] relates to SF-268 CNS.
The subject of experiment [10] is HT29 colon.

Consider `NC(N)=NC(N)=NCc1ccco1`, for which the GI50 in [1] was above 1250 µM; in experiment [2], 843 µM and 565 µM; in experiment [3], above 1250 µM; in [4] it was above 1250 µM; in [5], above 1250 µM; in experiment [6] it was above 1250 µM. Besides, the GI50 in [7], in experiment [8], in experiment [9] and in experiment [10] was above 1250 µM each time. Moreover, the TGI in experiment [1], in experiment [2], in experiment [3], in experiment [4], in experiment [5] and in experiment [6] was above 1250 µM each time. The TGI in experiment [7], in [8], in experiment [9] and in experiment [10] was above 1250 µM throughout.
For the molecule `CNCC1CCn2c(c(C3=C(c4cn(C)c5ccccc45)C(=O)NC3=O)c3ccccc32)C1` (stereo not given), the GI50 was 3.09 µM in [1]; 3.56 µM in experiment [2]; 3.76 µM in experiment [3]; 2.04 µM in experiment [4]; 2.87 µM in experiment [5]; 2.6 µM in experiment [6]. Besides, the GI50 in experiment [7] is 3.78 µM; in experiment [8], 4.88 µM; in experiment [9], 4.17 µM; in [10], 2.79 µM. For the same molecule, the TGI stood at 6.49 µM in experiment [1]; 7.55 µM in [2]; 8.6 µM in [3]; 5.6 µM in [4]; 9.28 µM in experiment [5]; 6.49 µM in [6]. The TGI in experiment [7] turned out to be 7.28 µM; in experiment [8], 11 µM; in experiment [9] it was 8.97 µM; in experiment [10], 8.18 µM.
For `CCCCCCCCCCCCCCCC(N)c1ccccc1` (stereo not given), the GI50 in [1] is 1.62 µM; in experiment [2], 1.78 µM; in experiment [3] it was 1.75 µM; in [4], 1.61 µM; in experiment [5], 1.8 µM; in [6], 1.49 µM. The GI50 in experiment [7] was 1.8 µM; in experiment [8], 1.68 µM; in experiment [9], 1.63 µM; in [10], 1.66 µM. For the same molecule, the TGI in experiment [1] is 3.21 µM; in [2], 3.4 µM; in experiment [3] it was 3.22 µM; in experiment [4], 3.19 µM; in experiment [5], 3.51 µM; in experiment [6], 2.97 µM. In addition, the TGI was 3.48 µM in [7], 3.27 µM in experiment [8], 3.26 µM in experiment [9] and 3.32 µM in [10].
As to `O=C1C=C(OCC=C(Cl)Cl)C(=O)c2ccccc21`, the GI50 in experiment [1] is 0.888 µM; in [2] it was 2.15 µM; in [3], 2.8 µM; in experiment [4] it was 3.51 µM; in experiment [5], 2.61 µM; in experiment [6], 3.15 µM. The GI50 was 4.91 µM in experiment [7], 51.9 µM in experiment [8], 6.57 µM in [9] and 11.7 µM in [10]. Besides, the TGI in experiment [1] is 6.24 µM; in [2], 11 µM; in experiment [3], 8.94 µM; in [4], 11.1 µM; in experiment [5] it was 8.27 µM; in experiment [6], 15.9 µM. Further, the TGI in experiment [7] is 23.9 µM; in [8] it was above 100 µM; in [9], above 85.7 µM; in experiment [10] it was above 100 µM.
Turning to `O=C1/C(=C/c2cccc(F)c2)CN(C(=O)C(Cl)Cl)C/C1=C\c1cccc(F)c1`, the GI50 is 0.202 µM in experiment [1]; 0.606 µM in experiment [2]; 0.392 µM in [3]; 0.0325 µM in [4]; 0.189 µM in experiment [5]; 0.176 µM in experiment [6]. Besides, the GI50 is 0.243 µM in experiment [7], 0.217 µM in experiment [8], 0.427 µM in [9] and 0.113 µM in experiment [10]. For the same molecule, the TGI in [1] amounted to 0.522 µM; in experiment [2], 1.63 µM; in experiment [3], 1.36 µM; in experiment [4] it was 0.125 µM; in experiment [5] it was 0.475 µM; in [6], 0.387 µM. The TGI in [7] was 0.601 µM; in [8], 0.536 µM; in experiment [9], 1.75 µM; in [10], 0.764 µM.
`NS(=O)(=O)c1ccc(N=Nc2c(=O)[nH]c3ccc4[nH]cccc4c23)cc1`: the GI50 in experiment [1] is 0.197 µM; in [2], 0.828 µM; in experiment [3] it was 0.611 µM; in [4], 0.356 µM; in experiment [5], 0.47 µM; in experiment [6], 1.68 µM. For the same molecule, the GI50 was 0.518 µM in experiment [7], 0.577 µM in experiment [8], 0.33 µM in experiment [9] and 0.875 µM in [10]. Moreover, the TGI in experiment [1] was 0.818 µM; in [2], 6.98 µM; in experiment [3], above 7.96 µM; in experiment [4] it was above 7.23 µM; in experiment [5], above 25 µM; in [6], above 25 µM. In addition, the TGI in experiment [7] was 1.64 µM; in [8], above 25 µM; in experiment [9] it was above 5.99 µM; in [10], above 25 µM.
In the case of `COc1cc(OC)c2c(c1Cl)O[C@]1(C2=O)C(OCc2ccccc2)=CC(=O)C[C@H]1C`, the GI50 was 0.694 µM in [1]; 1.76 µM in [2]; 0.485 µM in experiment [3]; 0.641 µM in experiment [4]; 0.833 µM in experiment [5]; 2.51 µM in experiment [6]. Also, the GI50 in [7] is 1.85 µM; in experiment [8], 0.944 µM; in experiment [9] it was 1.82 µM; in experiment [10], 0.534 µM. Further, the TGI in experiment [1] was 4.66 µM; in experiment [2], 49.2 µM; in experiment [3] it was 5.63 µM; in experiment [4], above 100 µM; in experiment [5] it was 14 µM; in experiment [6], 61.2 µM. Besides, the TGI was determined as 24.8 µM in experiment [7], 79.7 µM in experiment [8], 53.8 µM in [9] and 15.8 µM in experiment [10].
